From patent publication US20170050957A1, “4-AMINO-6-(HETEROCYCLIC)PICOLINATES AND 6-AMINO-2-(HETEROCYCLIC)PYRIMIDINE-4-CARBOXYLATES AND THEIR USE AS HERBICIDES” (Dow AgroSciences LLC, priority 2013, published 2017)
Like-named read-outs stand apart in the source and are kept apart here.

Experiments:
Type in all cases: in vivo
[1] = test system: Key Broadleaf Weed and Crop Species; assay: Post-emergent Test II herbicidal activity (Table 15); conditions: post-emergence, 336 h, 140 g ai/ha, 14 d
Outline: (§1)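 Post-emergence spray; seedlings 7-21 d old, 1st-2nd true leaf; 187 L/ha; serial rates 1×-1/16×; solvent blank controls; subirrigated; visual % injury at 14 d.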

[2] = test system: Key Grass and Sedge Weeds as well as Grass Crops; assay: Post-emergent Test II herbicidal activity (Table 16); conditions: post-emergence, 336 h, 14 d; for pest or weed control at 35 g/ha: 35 g ai/ha; for pest or weed control at 70 g/ha: 70 g ai/ha; for pest or weed control at 140 g/ha: 140 g ai/ha
Outline: as §1

[3] = test system: wild oats (Avena fatua); assay: Pre-emergent Test I herbicidal activity; conditions: 4 Kg ai/ha
Method: (§2) Pre-emergent Test I Seeds of test species were planted into round plastic pots (5-inch diameter) containing sandy loam soil. After planting, all pots were sub-irrigated 16 h prior to compound application. Compounds were dissolved in a 97:3 v/v (volume/volume) mixture of acetone and dimethyl sulfoxide (DMSO) and diluted to the appropriate concentration in a final application solution containing water, acetone, isopropanol, DMSO and Agri-dex (crop oil concentrate) in a 59:23:15:1.0:1.5 v/v ratio and 0.02% w/v (weight/volume) of Triton X-155 to obtain the spray solution containing the highest application rate. The high application rate was serial diluted with the above application solution to provide delivery of the compound at rates 1/2×, 1/4× and 1/8× of the highest rate (equivalent to 4.0, 2.0, 1.0, and 0.5 kg/ha, respectively). Formulated compound (2.7 mL) was applied pipetted evenly over the soil surface followed by incorporation with water (15 mL). Following treatment, pots were returned to the greenhouse for the duration of the experiment. The greenhouse was programmed for an approximate 15 h photoperiod which was maintained at about 23-29° C. during the day and 22-28° C. during the night. Nutrients and water were added on a regular basis through surface irrigation and supplemental lighting was provided with overhead metal halide 1000-Watt lamps as necessary. Herbicidal effect ratings were obtained 14 days after treatment. All evaluations were made relative to appropriate controls on a scale of 0 to 100 where 0 represents no herbicidal effect and 100 represents plant death or lack of emergence from the soil.

[4] = test system: ivyleaf morningglory (Ipomoea hederecea); assay: Pre-emergent Test I herbicidal activity; conditions: 4 Kg ai/ha
Method: as §2

[5] = test system: barnyardgrass (Echinochloa crs-galli); assay: Pre-emergent Test I herbicidal activity; conditions: 4 Kg ai/ha
Method: as §2

[6] = test system: sunflower (Helianthus annuus); assay: Pre-emergent Test I herbicidal activity; conditions: 4 Kg ai/ha
Method: as §2

[7] = test system: giant foxtail (Setaria faberi); assay: Pre-emergent Test I herbicidal activity; conditions: 4 Kg ai/ha
Method: as §2

[8] = Cyperus esculentus, yellow nutsedge (Cyperus esculentus), read-out: Visual Growth Reduction (%) 14 Days After Application, CYPES
[9] = Echinochloa crus-galli, barnyardgrass (Echinochloa crus-galli), read-out: Visual Growth Reduction (%) 14 Days After Application, ECHCG
[10] = Oryza sativa, rice (Oryza sativa), read-out: Visual Growth Reduction (%) 14 Days After Application, ORYSA
[11] = Setaria faberi, giant foxtail (Setaria faberi), read-out: Visual Growth Reduction (%) 14 Days After Application, SETFA
[12] = Triticum aestivum, wheat, spring (Triticum aestivum), read-out: Visual Growth Reduction (%) 14 Days After Application, TRZAS
[13] = Zea mays, maize, corn (Zea mays), read-out: Visual Growth Reduction (%) 14 Days After Application, ZEAMX

Question: Which pest or weed control at 140 g/ha ([1]; Abutilon theophrasti, velvetleaf (Abutilon theophrasti), read-out: Visual Growth Reduction (%) 14 Days After Application, ABUTH) does the source give for `Nc1c(F)c(-c2cccc3cc[nH]c23)nc(C(=O)O)c1Cl` [Compound 1.48] here?
Answer: The pest or weed control at 140 g/ha was 0 to 29%.

Question: And the pest or weed control at 140 g/ha ([1]; Amaranthus retroflexus, redroot pigweed (Amaranthus retroflexus), read-out: Visual Growth Reduction (%) 14 Days After Application, AMARE)?
Answer: Its pest or weed control at 140 g/ha is 0 to 29%.

Question: What about the pest or weed control at 140 g/ha ([1]; Brassica napus, oilseed rape, canola (Brassica napus), read-out: Visual Growth Reduction (%) 14 Days After Application, BRSNN) of the same molecule?
Answer: Its pest or weed control at 140 g/ha is 0 to 29%.

Question: What about the pest or weed control at 140 g/ha ([1]; Chenopodium album, lambsquarters (Chenopodium album), read-out: Visual Growth Reduction (%) 14 Days After Application, CHEAL) of the same molecule?
Answer: Its pest or weed control at 140 g/ha is 60 to 74%.

Question: And the pest or weed control at 140 g/ha ([1]; Euphorbia heterophylla, wild poinsettia (Euphorbia heterophylla), read-out: Visual Growth Reduction (%) 14 Days After Application, EPHHL)?
Answer: Its pest or weed control at 140 g/ha is 0 to 29%.

Question: What about the pest or weed control at 140 g/ha ([1]; Helianthus annuus, sunflower (Helianthus annuus), read-out: Visual Growth Reduction (%) 14 Days After Application, HELAN) of the same molecule?
Answer: The pest or weed control at 140 g/ha was 75 to 84%.

Question: And the pest or weed control at 35 g/ha [2, 8]?
Answer: The pest or weed control at 35 g/ha was 0 to 29%.

Question: And the pest or weed control at 70 g/ha [2, 8]?
Answer: The pest or weed control at 70 g/ha was 0 to 29%.

Question: And the pest or weed control at 140 g/ha [2, 8]?
Answer: Its pest or weed control at 140 g/ha is 0 to 29%.

Question: What about the pest or weed control at 35 g/ha [2, 9] of the same molecule?
Answer: The pest or weed control at 35 g/ha was 0 to 29%.

Question: And the pest or weed control at 70 g/ha [2, 9]?
Answer: The pest or weed control at 70 g/ha was 0 to 29%.

Question: What about the pest or weed control at 140 g/ha [2, 9] of the same molecule?
Answer: Its pest or weed control at 140 g/ha is 0 to 29%.

Question: And the pest or weed control at 35 g/ha [2, 10]?
Answer: The pest or weed control at 35 g/ha was 0 to 29%.

Question: What about the pest or weed control at 70 g/ha [2, 10] of the same molecule?
Answer: The pest or weed control at 70 g/ha was 0 to 29%.

Question: What about the pest or weed control at 140 g/ha [2, 10] of the same molecule?
Answer: Its pest or weed control at 140 g/ha is 0 to 29%.

Question: And the pest or weed control at 35 g/ha [2, 11]?
Answer: The pest or weed control at 35 g/ha was 0 to 29%.

Question: And the pest or weed control at 70 g/ha [2, 11]?
Answer: Its pest or weed control at 70 g/ha is 0 to 29%.

Question: And the pest or weed control at 140 g/ha [2, 11]?
Answer: The pest or weed control at 140 g/ha was 0 to 29%.

Question: And the pest or weed control at 35 g/ha [2, 12]?
Answer: Its pest or weed control at 35 g/ha is 0 to 29%.

Question: And the pest or weed control at 70 g/ha [2, 12]?
Answer: The pest or weed control at 70 g/ha was 0 to 29%.

Question: What about the pest or weed control at 140 g/ha [2, 12] of the same molecule?
Answer: The pest or weed control at 140 g/ha was 0 to 29%.

Question: What about the pest or weed control at 35 g/ha [2, 13] of the same molecule?
Answer: The pest or weed control at 35 g/ha was 0 to 29%.

Question: And the pest or weed control at 70 g/ha [2, 13]?
Answer: The pest or weed control at 70 g/ha was 0 to 29%.

Question: And the pest or weed control at 140 g/ha [2, 13]?
Answer: The pest or weed control at 140 g/ha was 0 to 29%.

Question: What about the “Visual Growth Reduction (%) 14 Days After Application AVEFA” value [3] of the same molecule?
Answer: Its value is “G (0-29)”.

Question: What about the “Visual Growth Reduction (%) 14 Days After Application IPOHE” value [4] of the same molecule?
Answer: Its value is “D (60-74)”.

Question: What about the “Visual Growth Reduction (%) 14 Days After Application, ECHCG” value [5] of the same molecule?
Answer: The value was “G (0-29)”.

Question: What about the “Visual Growth Reduction (%) 14 Days After Application HELAN” value [6] of the same molecule?
Answer: Its value is “C (75-84)”.

Question: And the “Visual Growth Reduction (%) 14 Days After Application, SETFA” value [7]?
Answer: The value was “G (0-29)”.
